SMILES strings stand for the structures. pEC50: −log10 of the molar value. A value given as a limit tells only on which side of the number the result lay.

The test concerns HBV. The test can be described thus: HepG2-NTCP infection protocol, HBeAg quantification by ECL-ELISA. The format is cell-based. Particulars: Hepatitis B virus, HepG2-NTCP cells infected with HBV at MOI 50; compound 24 hours, then 72 hours; HBeAg in supernatant. As to the method: HepG2 cells expressing the sodium taurocholate cotransporting polypeptide (HepG2-NTCP) were maintained in culture using HepG2-NTCP growth medium (DMEM (HyClone, Cat #SH30243.02) supplemented with 10% FBS, 150 μg/mL G418 (Alfa Aesar, Cat #J62671), 50 U/mL penicillin-streptomycin (Invitrogen, Cat #15140-122), and 0.5 μg/mL blasticidin (Sigma, Cat #15205)). Prior to infection, the cells were washed twice with 1×DPBS (Invitrogen, Cat #14190-136) and treated with 3 mL of 0.05% trypsin (Invitrogen, Cat #25200-056) to dissociate the cells. Following dissociation, 10 mL of HepG2-NTCP growth medium was added to the cells to neutralize the trypsin and the cells were then centrifuged at 1,300 rpm for 5 minutes. Following centrifugation, the cells were resuspended in 10 mL of HepG2-NTCP growth medium, counted, and then centrifuged at 1,300 rpm for 5 minutes. The cell pellet was resuspended in DMEM supplemented with 5% FBS, 50 U/mL penicillin-streptomycin, 4% PEG-8000 (Hamilton Research, Cat #HR2-515), and 1% DMSO (Sigma, Cat #D4540) to a density of 5.6×10^5 cells/mL and infected with HBV at an MOI of 50. Immediately after infection, 90 μL of the cell/HBV mixture was added to a 96-well plate containing 10 μL of compound and incubated at 37° C. for 24 hours (2% final DMSO concentration). After the incubation, the infection media was removed and replaced with DMEM supplemented with 5% FBS, 50 U/mL penicillin-streptomycin, and 1% DMSO and incubated for an additional 72 hours. At the end of the incubation, the plates were spun at 1,800 rpm for 8 minutes and the supernatant was removed for HBeAg quantification using electrochemiluminescence enzyme-linked immunosorbent assays (ECL-ELISA).
To conduct the HBeAg ECL-ELISA, Lumitrack high-binding 96-well plates (Greiner, Cat #655074) were treated with 625 ng/mL HBeAg mAb (Biocheck, Cat #70426) in 1×DPBS for 2 hours at 25° C. with shaking. The HBeAg mAb solution was then removed and the plates treated with 1×DPBS containing 0.5% bovine serum albumin (BSA) (Sigma, Cat #A7030-100 g) for 2 hours at 25° C. with shaking. The HBeAg-coated plates were then washed 4 times with 1×DPBS containing 0.05% Tween 20 (DPBS-T) (Thermo Fisher Scientific, Cat #J61544-K2). Following the wash, 90 μL of HRP-conjugated antibody (Fitzgerald, Cat #61-H10K), diluted 1:8,000 in 1×DPBS-T containing 0.5% BSA, was added to the HBeAg-coated plates along with 10 μL of sample. The plates were then incubated for 2 hours at 25° C. with shaking. Following the incubation, the sample was then removed and 200 μL of 1×PBS-T was added and the plates were incubated for 10 minutes at 25° C. with shaking. The plates were then washed 6 times with 1×PBS-T and blotted dry. 80 μL of ECL substrate (Millipore, Cat #WBKLS0500) was then added to the plate and the luminescence was measured using a Tecan M1000 Pro plate reader.
(In general: In an ELISA, binding on a coated surface is turned into a signal by an enzyme label.)
In the case of `CCCCC1CN(C2CCOC2)c2cc(SC)c(O/C=C(\F)C(=O)O)cc2S(=O)(=O)N1C` (centres unmarked) [Example 50], the pEC50 (usually the EC50 on a negative log10 scale, so that one unit is a factor of ten) is 6.00 to 7.00.
`CCCCC1CN(C2CCC(N)CC2)c2cc(SC)c(O/C=C(\F)C(=O)O)cc2S(=O)(=O)N1C` (centres unmarked) [Example 51] showed a pEC50 of 5.30 to 6.00.
The result for `CCCCC1CN(C(C)c2ccccc2)c2cc(SC)c(O/C=C(\F)C(=O)O)cc2S(=O)(=O)N1C` (centres unmarked) [Example 52] reads more than 7.00; that for `CCCCC1CN(c2ccn(C)n2)c2cc(SC)c(O/C=C(\F)C(=O)O)cc2S(=O)(=O)N1C` (centres unmarked) [Example 53], 6.00 to 7.00; that for `CCCCC1CN([C@H]2CC[C@H](OC)CC2)c2cc(SC)c(O/C=C(\F)C(=O)O)cc2S(=O)(=O)N1C` (some centres unmarked) [Example 56], more than 7.00.

Source of the values: US20250163009A1, “BENZOTHIA(DIA)ZEPINE COMPOUNDS FOR TREATMENT OF HBV AND HDV” (Assembly Biosciences, Inc., priority 2022, published 2025).
